The text below walks through data of patent US9522928B2, “Mannosylated compounds useful for the prevention and the treatment of infectious diseases” (UNIVERSITE DE STRASBOURG, priority 2011, dated 2016).

The target of one assay is T1, DC-SIGN CRD (Homo sapiens, UniProt Q9NNX6).
T1 construct: human DC-SIGN (Lys62-Ala404, from R§D Systems); purchased R&D Systems ('R§D Systems' [sic])
T1 sequence (Q9NNX6 62-404): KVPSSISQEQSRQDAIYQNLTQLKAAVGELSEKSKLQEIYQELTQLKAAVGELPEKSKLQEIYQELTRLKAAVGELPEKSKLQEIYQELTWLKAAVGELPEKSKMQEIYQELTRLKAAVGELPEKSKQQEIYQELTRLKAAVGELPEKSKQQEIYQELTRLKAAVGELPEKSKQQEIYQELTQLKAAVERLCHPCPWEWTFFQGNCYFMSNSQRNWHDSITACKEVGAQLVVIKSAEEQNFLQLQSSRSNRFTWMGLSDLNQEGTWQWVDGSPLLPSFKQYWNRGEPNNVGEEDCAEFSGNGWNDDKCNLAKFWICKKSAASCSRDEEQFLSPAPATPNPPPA
In words: Surface plasmon resonance (SPR) binding to immobilised DC-SIGN CRD. The note with it: Kd=koff/kon. On the procedure:
SPR experiments were performed using a Biacore 3000. […] Biosensor assays were performed with HEPES-buffered saline (10 mM HEPES, 150 mM sodium chloride, pH 7.4) containing 0.005% surfactant P20 and 5 mM CaCl2 as a running buffer. All binding experiments were carried out at 25° C. with a constant flow rate of 20 μl/min. The different compounds dissolved in the running buffer (0.39 to 50 μM) were injected for 3 min, followed by a dissociation phase of 3 min. The sensor chip surface was regenerated after each experiment by injecting 10 μL of EDTA 0.5 M pH 8.0. A simple channel activated by EDC/NHS and deactivated with ethanolamine was used as control. The kinetic parameters were calculated using the BlAeval 4.1 software. Analysis was performed using the simple Langmuir binding model with separate ka/kd (kon/koff). The specific binding profiles were obtained after subtracting the response signal from the control channel and from blank-buffer injection. The fitting to each model was judged by the chi square value and randomness of residue distribution compared to the theoretical model (Langmuir binding 1:1).
The binding affinity of mannoside derivatives for the carbohydrate recognition domain (CRD) of DC-SIGN was assessed by surface plasmon resonance (SPR).
A CM5 sensor chip was functionalized with the DC-SIGN CRD, and increasing concentrations of the various compounds, mannan as a positive control and octaethyleneglycol (OEG) as a negative control, were injected over the chip surface. The association (kon) and dissociation (koff) rate constants and the resulting dissociation equilibrium constant (Kd=koff/kon) for each assessed compound were determined (see Table 1 hereunder).
In general terms: Surface plasmon resonance follows binding to a sensor surface in real time, without labels.

Another assay concerns the target T2, DC-SIGN (Homo sapiens, UniProt Q9NNX6).
T2 construct: endogenous in cells; host or cells: human monocyte-derived dendritic cells (GM-CSF/IL-4 differentiated)
T2 sequence (Q9NNX6 1-404): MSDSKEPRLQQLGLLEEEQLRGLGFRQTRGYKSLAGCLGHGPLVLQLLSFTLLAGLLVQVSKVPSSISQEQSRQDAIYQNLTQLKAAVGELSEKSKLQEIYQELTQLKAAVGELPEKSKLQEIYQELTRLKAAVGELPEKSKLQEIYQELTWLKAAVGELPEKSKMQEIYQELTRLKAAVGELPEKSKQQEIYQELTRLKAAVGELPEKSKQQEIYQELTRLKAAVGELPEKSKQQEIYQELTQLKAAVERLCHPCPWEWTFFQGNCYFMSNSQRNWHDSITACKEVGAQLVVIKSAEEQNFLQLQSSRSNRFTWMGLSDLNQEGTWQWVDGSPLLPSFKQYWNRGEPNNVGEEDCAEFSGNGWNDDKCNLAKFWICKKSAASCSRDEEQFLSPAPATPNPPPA
In words: DC-SIGN internalization in DCs (flow cytometry, confocal microscopy). The format is cell-based. The note with it: 100 μM. The method, then: To visualize the effect on DC-SIGN, cells were either left untreated or exposed to TriMan (100 μM final) for 45 min at 37° C., fixed with 4% paraformaldehyde for 15 min at room temperature, washed, permeabilized with 0.1% Triton X-100 for 3 min at 20° C., washed and labeled with an anti-DC-SIGN primary monoclonal antibody clone 111H2 (Canard, et al., 2011), followed by a secondary FITC-labeled anti-mouse-IgG (Southern Biotech). Nuclei were labeled with DAPI. Slides were mounted and processed as above.
Moreover, expression of DC-SIGN was visualized with a fluorescently-labeled antibody by confocal fluorescence microscopy. In untreated cells, DC-SIGN was mostly located at the cell membrane, in agreement with previous reports (Engering, et al., 2002). Upon exposure to TriManC24, DC-SIGN was detected both at the cell membrane and within the cytoplasm. […] The effect of TriManC24 on DC-SIGN cellular localization was assessed by flow cytometry analyses of DCs, in the absence or presence of TriManC24.
(A flow cytometer gives signals particle by particle.)

The subject of another assay is HIV-1 X4. Kind of assay: HIV-1 X4 trans-infection of MAGI-CCR5 cells mediated by DCs. The format is cell-based. On the procedure: ManC1, […] (comparative) and compounds of the invention (ManC24, ManC17, TriManC24, TriDiManC24, TriManinsatC24 and ManinsatC24) were serially diluted in water. Human DCs (1×10^5 in 200 μl ) were pre-treated with different concentrations of compounds, or mannan (Sigma) or culture medium alone, in RPMI 1640 medium containing 10% FBS for 45 min at 37° C., prior infection with HIV-1 (100 ng of p24Gag) for 3 h. Excess free virus and molecules were removed by three washes. DCs were then cocultured with MAGI -CCR5 cells (1×10^5) at 37° C. plated in a 48-well plate. After two days, viral infection of MAGI-CCR5 cells was quantitated following beta-galactosidase assays and enumerating blue cells by light microscopy.
The IC50 were determined by serial dilution of each compound. The trans-infection assays were repeated a minimum of three times, and the IC50 determined using KaleidaGraph.
To investigate the ability of the compounds of the invention to inhibit HIV-1 trans infection, we chose to infect human DCs in order to best mimic in vivo conditions. […] This procedure allows precise quantification of HIV-1 replication in reporter MAGI-CCR5 cells by detection of beta-galactosidase activity. […] Upon viral entry leading to viral Tat expression and activation of the LTR, these cells permit quantification of HIV trans-infection after two days.

The Kd is the concentration at which binding is half-saturated. A higher Kd goes with weaker binding.

Each structure is given as a SMILES string. “Also recorded” adds a separate entry of the source.

With `CCCCCCCCCCCCCCCCCCCCCCCCC(=O)NC(COCCC(=O)NCCOCCOCCOCCOC1OC(CO)C(O)C(O)C1O)(COCCC(=O)NCCOCCOCCOCCOC1OC(CO)C(O)C(O)C1O)COCCC(=O)NCCOCCOCCOCCOC1OC(CO)C(O)C(O)C1O` (stereo not shown) [TriManC24], on DC-SIGN CRD, the “KD (μM)” value is “low micromolar range; also recorded: Sub-micromolar” and the Kd is 3.19 µM. Further, the DC-SIGN receptors internalized result on DC-SIGN was “about 20%”. Besides, the “residual level of trans-infection” value in the assay with HIV-1 X4 amounted to 15%.
